Among the data in ChEMBL document CHEMBL1139601, “Novel 2-N,N-dimethylaminomethyl-2,3,3a,12b-tetrahydrodibenzo[b,f]furo[2,3-d]oxepin derivatives displaying combined norepinephrine reuptake inhibition and 5-HT2A/2C receptor antagonism” (Bioorg Med Chem Lett, 2005) are Ki and ED50 values, retold here.

Assay [1] concerns the target T1, 5-hydroxytryptamine receptor 2C (Homo sapiens, UniProt P28335).
T1 sequence (P28335 whole entry): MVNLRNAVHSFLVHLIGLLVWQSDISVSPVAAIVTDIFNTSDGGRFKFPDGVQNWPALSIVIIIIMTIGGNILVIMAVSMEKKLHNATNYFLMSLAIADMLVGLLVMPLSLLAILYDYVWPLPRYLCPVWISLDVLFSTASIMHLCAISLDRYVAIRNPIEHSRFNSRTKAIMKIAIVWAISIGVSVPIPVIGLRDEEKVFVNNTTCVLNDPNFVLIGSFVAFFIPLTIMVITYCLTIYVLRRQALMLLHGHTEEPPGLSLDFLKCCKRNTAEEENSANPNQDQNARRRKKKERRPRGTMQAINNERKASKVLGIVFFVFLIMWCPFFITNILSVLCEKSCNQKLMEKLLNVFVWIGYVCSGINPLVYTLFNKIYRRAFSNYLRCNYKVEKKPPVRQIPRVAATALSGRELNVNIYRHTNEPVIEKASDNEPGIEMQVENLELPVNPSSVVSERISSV
Description: In vitro binding affinity against 5-hydroxytryptamine 2C receptor using [3H]mesulergine as radioligand expressed in CHO cells. The class given is cell-based.

The target in assay [2] is 5-hydroxytryptamine receptor 2A (Homo sapiens, UniProt P28223). The assay can be described thus: In vitro binding affinity against 5-hydroxytryptamine 2A receptor using [125I]R91150 as radioligand expressed in L929 cells. The class given is cell-based.
Chain of 5-hydroxytryptamine receptor 2A (P28223 whole entry): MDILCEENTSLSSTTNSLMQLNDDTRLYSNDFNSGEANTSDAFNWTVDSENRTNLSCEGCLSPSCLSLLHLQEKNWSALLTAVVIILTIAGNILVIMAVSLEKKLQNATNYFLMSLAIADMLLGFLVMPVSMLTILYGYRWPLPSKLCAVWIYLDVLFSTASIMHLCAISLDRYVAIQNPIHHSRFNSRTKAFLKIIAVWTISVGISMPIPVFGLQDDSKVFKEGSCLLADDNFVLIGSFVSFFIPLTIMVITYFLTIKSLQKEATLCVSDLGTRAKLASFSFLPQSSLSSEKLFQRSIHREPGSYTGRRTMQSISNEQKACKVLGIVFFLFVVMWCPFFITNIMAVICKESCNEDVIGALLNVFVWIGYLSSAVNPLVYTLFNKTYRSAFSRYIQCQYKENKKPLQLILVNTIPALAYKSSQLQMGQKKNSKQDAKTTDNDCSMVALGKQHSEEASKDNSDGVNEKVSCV
In assay [3] the test system is Rattus norvegicus. Description: In vivo effective dose for the reversal of tryptamine-induced cyanosis in rat. The assay is classed as functional.
For assay [4], the system named is Mus musculus. The assay can be described thus: In vivo effective dose for the reversal of RO-4-1284 induced hypothermia in mice. The assay is classed as functional.
Assay [5] relates to Rattus norvegicus. The assay can be described thus: In vivo effective for the antagonism of m-chlorophenyl-piperazine induced anxiety in rat. The class given is functional.
Assay [6] relates to Rattus norvegicus. The assay can be described thus: In vivo effective dose for the reversal of tryptamine-induced bilateral convulsions in rat. The class given is functional.

The term Ki denotes the dissociation constant of the complex between target and ligand, obtained from inhibition or displacement. Low readings indicate tighter binding, high ones weaker binding. With `CN(C)C[C@H]1C[C@H]2c3ccccc3Oc3ccc(Br)cc3[C@H]2O1`, the Ki in assay [1] was found to be 87 nM.

As to `Brc1ccc2c(c1)[C@H]1O[C@H](Cn3oc4ccc(-c5ccccc5)cc43)C[C@H]1c1ccccc1O2`, the Ki came out at 183 nM in assay [1] and 307 nM in assay [2].

The ED50 is the midpoint of the dose-response relation. As for `CN(C)C[C@H]1C[C@H]2c3ccccc3Oc3ccccc3[C@@H]2O1`, the ED50 in assay [3] was greater than 2.5 mg/kg; in assay [4] it was 1.25 mg/kg; in assay [5], greater than 2.5 mg/kg; in assay [6], 3.15 mg/kg. For the same compound, the figures for the Ki in assay [1] and in assay [2] were 183 nM and 92 nM, respectively.

For the compound `O=C1CCN1c1ccc2on(C[C@@H]3C[C@H]4c5ccccc5Oc5ccc(Br)cc5[C@H]4O3)c2c1`, the Ki was 356 nM in assay [1] and 306 nM in assay [2].

Turning to `CN(C)C[C@@H]1C[C@H]2c3ccccc3Oc3ccc(F)cc3[C@H]2O1`, the median effective dose (ED50) amounted to 0.5 mg/kg in assay [3], 0.02 mg/kg in assay [4], 0.5 mg/kg in assay [5] and 0.5 mg/kg in assay [6]. This compound registered a Ki in assay [2] of 104 nM.

For the compound `CN(C)C[C@H]1C[C@@H]2c3ccccc3Oc3ccccc3[C@H]2O1`, the ED50 in assay [3], in assay [4] and in assay [6] was greater than 2.5 mg/kg each time. Also, the Ki came out at 179 nM in assay [1] and 16 nM in assay [2].

On to `CN(C)C[C@H]1C[C@H]2c3ccccc3Oc3ccc(F)cc3[C@H]2O1`, for which the ED50 in assay [3] was 5 mg/kg; in assay [4], 0.13 mg/kg; in assay [5], greater than 2.5 mg/kg; in assay [6], 1.98 mg/kg. Also, the inhibitory constant (Ki) was found to be 63 nM in assay [1] and 423 nM in assay [2].

Regarding `CN(C)C[C@@H]1C[C@H]2c3ccccc3Oc3ccc(Cl)cc3[C@H]2O1`, the ED50 was 0.2 mg/kg in assay [3], 0.5 mg/kg in assay [4], greater than 2.5 mg/kg in assay [5] and 0.08 mg/kg in assay [6].

For the compound `N#Cc1ccc2on(C[C@@H]3C[C@H]4c5ccccc5Oc5ccc(Br)cc5[C@H]4O3)c2c1`, the results for the Ki in assay [1] and in assay [2] were 183 nM and 185 nM, respectively.

In the case of `CN(C)C[C@@H]1C[C@H]2c3ccccc3Oc3ccc(Br)cc3[C@H]2O1`, the ED50 is 0.79 mg/kg in assay [3], 3.15 mg/kg in assay [4], greater than 2.5 mg/kg in assay [5] and 0.32 mg/kg in assay [6]. The same compound registered a Ki in assay [1] of 6 nM.

As to `Nc1ccc2on(C[C@@H]3C[C@H]4c5ccccc5Oc5ccc(Br)cc5[C@H]4O3)c2c1`, the Ki worked out at 270 nM in assay [1] and 255 nM in assay [2].

For `CCOC(=O)c1ccc2on(C[C@@H]3C[C@H]4c5ccccc5Oc5ccc(Br)cc5[C@H]4O3)c2c1`, the Ki in assay [1] came out at 246 nM; in assay [2] it was 97 nM.

Take `CN(C)C[C@H]1C[C@H]2c3ccccc3Oc3ccc(Cl)cc3[C@H]2O1`: the ED50 in assay [3] was 0.8 mg/kg; in assay [4], 0.05 mg/kg; in assay [5], greater than 2.5 mg/kg; in assay [6], 0.32 mg/kg. In assay [1], this compound returned a Ki of 21 nM.

`COc1ccc2c(c1)[C@H]1O[C@@H](CN(C)C)C[C@H]1c1ccccc1O2`: the Ki in assay [1] amounted to 235 nM; in assay [2] it was 193 nM.

Turning to `Brc1ccc2c(c1)[C@H]1O[C@H](Cn3oc4ccc(N5CCOCC5)cc43)C[C@H]1c1ccccc1O2`, the figures for the Ki in assay [1] and in assay [2] were greater than 5450 nM and 306 nM, respectively.

Consider `Cc1ccc2on(C[C@@H]3C[C@H]4c5ccccc5Oc5ccc(Br)cc5[C@H]4O3)c2c1`, for which the ED50 came to 0.5 mg/kg in assay [3], 1.99 mg/kg in assay [4], 0.8 mg/kg in assay [5] and 0.5 mg/kg in assay [6]. Further, the Ki in assay [1] turned out to be 58 nM; in assay [2], 36 nM.

With `Brc1ccc2c(c1)[C@H]1O[C@H](Cn3oc4ccc(CN5CCOCC5)cc43)C[C@H]1c1ccccc1O2`, the Ki was found to be 4100 nM in assay [1] and 189 nM in assay [2].

On to `COc1ccc2c(c1)[C@H]1O[C@H](CN(C)C)C[C@H]1c1ccccc1O2`, for which the ED50 in assay [3] is 1.26 mg/kg; in assay [4], 0.79 mg/kg; in assay [5], greater than 2.5 mg/kg; in assay [6] it was 0.32 mg/kg. In assay [2], this compound had a Ki of 22 nM.

With `CN(C)c1ccc2on(C[C@@H]3C[C@H]4c5ccccc5Oc5ccc(Br)cc5[C@H]4O3)c2c1`, the Ki in assay [1] came to 157 nM; in assay [2] it was 95 nM.
